Laboratory results reported in patent publication EP1733731A1, “New uses of Glycerol derivatives in particular in cosmetics” (AGRO INDUSTRIE RECHERCHES ET DEVELOPPEMENTS (A.R.D.), priority 2005, dated 2006).

Experiments:
[1] = biological target: T1, plasmine humaine (Homo sapiens, UniProt P00747); experiment: amidolytic activity of plasmin on synthetic substrate S-2251; format: biochemical
T1 construct: connus pour interagir avec la plasmine via son domaine kringle V; testé in vitro sur l'activité amidolytique de la plasmine à l'aide d'un substrat synthétique (S-2251, Chromogénix)
T1 sequence (P00747 97-580 limits assumed): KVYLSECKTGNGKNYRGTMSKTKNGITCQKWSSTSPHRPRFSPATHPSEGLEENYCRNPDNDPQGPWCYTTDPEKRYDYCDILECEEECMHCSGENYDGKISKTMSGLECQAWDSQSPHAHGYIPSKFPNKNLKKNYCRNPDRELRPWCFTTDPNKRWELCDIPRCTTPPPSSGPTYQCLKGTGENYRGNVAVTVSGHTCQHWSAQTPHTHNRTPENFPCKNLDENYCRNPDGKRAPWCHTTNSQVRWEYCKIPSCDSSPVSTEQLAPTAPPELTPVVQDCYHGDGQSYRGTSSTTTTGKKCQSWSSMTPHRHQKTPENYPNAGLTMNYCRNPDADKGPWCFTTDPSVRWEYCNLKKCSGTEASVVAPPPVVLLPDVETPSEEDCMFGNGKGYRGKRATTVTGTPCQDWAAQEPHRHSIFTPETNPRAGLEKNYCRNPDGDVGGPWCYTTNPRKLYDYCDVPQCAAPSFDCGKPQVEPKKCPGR
T1 sequence (P00747 581-810 limits assumed): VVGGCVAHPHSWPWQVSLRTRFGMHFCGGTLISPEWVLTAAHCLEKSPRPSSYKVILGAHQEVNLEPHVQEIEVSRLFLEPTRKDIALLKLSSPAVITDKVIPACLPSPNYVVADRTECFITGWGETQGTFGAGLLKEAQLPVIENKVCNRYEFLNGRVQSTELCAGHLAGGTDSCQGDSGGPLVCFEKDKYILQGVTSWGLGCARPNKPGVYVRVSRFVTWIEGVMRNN
Protocol: L'effet de ces différentes fractions et produits purs a donc été testé in vitro sur l'activité amidolytique de la plasmine à l'aide d'un substrat synthétique (S-2251, Chromogénix).
Les fractions ou composés purs issus de l'extraction sont solubilisés avant utilisation dans du diméthylsulfoxyde (DMSO) à une concentration de stockage de 20 mg/mL. La conservation est effectuée à -80°C. 12 nM de plasmine humaine sont pré-incubés en absence et en présence de concentrations croissantes (0 à 200 µg/mL) des différentes fractions et produits dans un tampon Tris-HCl 100 mM pH 7,5. La réaction est déclenchée par addition de 0,3 mM de S-2251. L'hydrolyse du S-2251 est suivie par mesure de l'absorbance du para-nitroaniline à 405 nm. La courbe représentant les variations d'absorbance en fonction du temps est tracée et la vitesse initiale de la réaction est déterminée par calcul de la pente de la tangente à l'origine. Le rapport Vi/Vo est calculé, où Vo représente la vitesse initiale en absence d'effecteur et Vi cette vitesse en présence d'un effecteur, et la courbe Vi/Vo en fonction de la concentration en en glycolipides est tracée.

[2] = biological target: T2, MMP-1 (Homo sapiens, UniProt P03956); experiment: MMP-1 activity on fluorescent synthetic substrate (FRET); format: biochemical
T2 construct: La proMMP-1 recombinante (75 ng/mL) est activée par l'APMA
T2 sequence (P03956 100-469): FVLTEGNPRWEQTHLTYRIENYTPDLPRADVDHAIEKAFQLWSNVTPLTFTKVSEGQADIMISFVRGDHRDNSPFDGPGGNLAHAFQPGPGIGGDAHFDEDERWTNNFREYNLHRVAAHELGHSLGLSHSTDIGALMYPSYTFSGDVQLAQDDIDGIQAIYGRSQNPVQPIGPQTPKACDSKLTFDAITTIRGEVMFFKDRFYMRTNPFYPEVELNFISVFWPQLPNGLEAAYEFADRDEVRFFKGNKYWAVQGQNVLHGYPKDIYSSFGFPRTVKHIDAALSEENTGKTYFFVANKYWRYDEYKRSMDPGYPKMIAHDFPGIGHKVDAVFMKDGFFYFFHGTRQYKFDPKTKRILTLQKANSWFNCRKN
Text: La mesure de l'activité enzymatique des MMPs est basée sur le principe du transfert d'énergie par résonance, RET ou transfert d'énergie de fluorescence par résonance, FRET. Le substrat est constitué d'un oligopeptide comportant un groupement fluorescent (F), donneur d'énergie et un groupement éteignant (Q, pour quenching), accepteur d'énergie. Après hydrolyse, le groupement éteignant est libéré, permettant de mesurer l'augmentation de fluorescence.
De nombreux couples fluorescent/éteignant ont été développés pour la mesure de l'activité enzymatique des MMPs comme le couple 7-méthoxycoumarine-4-acétyl (Mca)/dinitrophenyl-diaminopropionyl (Dnp).
Après activation, la MMP-1 est pré-incubée à +20°C pendant 10 minutes en absence ou en présence d'effecteurs dans un tampon Tris-HCl 50 mM, NaCl 150 mM, CaCl2 5 mM pH 7,5 en plaque 96 puits noire dont les sites de liaisons non-spécifiques ont été bloqués à l'aide d'une solution de SAB à 0,1% (p/v) dans le même tampon. La réaction est initiée par addition de 10 µL de substrat à la concentration finale de 2 µM dans un volume réactionnel final de 200 µL. Les variations de fluorescence (λ excitation : 360 nm, λ émission : 465 nm) au cours du temps sont suivies à l'aide d'un spectrofluorimètre lecteur de plaque HTS 7000+ à +20°C. La courbe représentant la fluorescence (en RFU) en fonction du temps (en minutes) est tracée.
Les intensités de fluorescence obtenues permettent d'estimer là vitesse initiale de l'enzyme en absence d'effecteur (V0) et en présence d'inhibiteur (Vi). […]
La proMMP-1 recombinante (75 ng/mL) est activée par l'APMA (Acide Phényl Mercurique Acétate). […] Le clivage de ce substrat est estimé par mesure de la fluorescence libérée (λexc = 360 nm; λem = 465 nm) à l'aide d'un spectrofluorimètre lecteur de plaques de type Perkin Elmer HTS 7000 Plus. Les intensités de fluorescence obtenues permettent d'estimer la vitesse initiale de l'enzyme en l'absence d'effecteur (Vo) et en présence d'inhibiteur (Vi). […]

[3] = tested on: kératinocytes et fibroblastes dermiques; experiment: degradation of a fluorescein-labelled type I collagen layer in a UV-A skin photo-ageing co-culture model; format: cell-based; conditions: 10 J.cm^-2 UV-A, 15 µg/mL plasminogen, 48 h, versus control without active, read-out: inhibition de ce "vieillissement cutané" (dégradation du tapis de collagène)

CCCCC/C=C\C/C=C\CCCCCCCCOC[C@H](CO[C@@H]1O[C@H](COC(=O)CCCCCCCCCCCCCCC)[C@H](O)[C@H](O)[C@H]1O)OCCCCCCCC/C=C\C/C=C\CCCCC [ED23-11, 1,2-di-O-linoléyl-3-O-[6'-O-palmitoyl-β-D-galactopyranosyl]-sn-glycérol]
Plasmine (Vi/Vo) ([1]; 25 µg/mL, 12 nM plasmin, 0,3 mM S-2251): 2,11 ± 0,16
Action sur l'activité de la plasmme (Vi/V0) à isoconcentration ([1]; at isoconcentration): 8,44
Augmentation d'activité ([1]; plasmin amidolytic activity, increase from one fractionation step to the next): 2,36
inhibition at 25 µg/mL ([2]; 25 µg/mL, read-out: Inhibition de MMP-1 (%)): 42 ± 0.87%
Action sur l'activité de la MMP-1 (Vi/V0) à isoconcentration ([2]; at isoconcentration): 168
Augmentation d'activité ([2]; inhibition of type I collagenase, increase from one fractionation step to the next): 2,72
inhibition at 25 µg/mL [3]: 70%
